Results: patent US20230131899A1, “INHIBITORS OF MICROBIALLY INDUCED AMYLOID” (Axial Therapeutics, Inc., priority 2020, published 2023)
Read-outs that look alike come from different tables or passages of the source.

Assays:
E. coli CsgA = target: T1, E. coli CsgA (Escherichia coli, UniProt P28307); experiment: In vitro ThioflavinT assay of CsgA aggregation (CsgA ThT Assay); assay type: biochemical; details: 1005 minutes; for remaining activity at 25 µM: compound 25 μM; for remaining activity at 100 µM: compound 100 μM
T1 construct: made in house; host or cells: E. coli NEB 3016 slyD::kan, pET11d
Method in brief: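 Purified C-terminal His-tagged CsgA, monomerised by desalting and 30-kDa filtration, at 2-20 μM with 20-40 μM ThT in 50 mM potassium phosphate pH 7.3, 1% DMSO, compounds 3.125-200 uM; room temperature, fluorescence (ex 438/em 495 nm) read every 15 min. Background-subtracted signal expressed as percent inhibition versus vehicle at 6-6.5 or 8-9 h, or as percent control AUC.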

[1] = tested on: CsgA gene expression (csgBAC promoter-GFP reporter) in E. coli UTI89; experiment: In vitro live cell fluorescent reporter assay of CsgA transcription (Reporter Assay); assay type: cell-based; details: Escherichia coli
Method in brief: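 Chromosomal single-copy csgBAC promoter–GFP reporter in E. coli UTI89, started at OD600 0.003 in YESCA broth with compound (0.14–100 μM, 1% DMSO), 20 h at 27 °C. GFP (ex 485/em 525 nm) background-subtracted and normalized to vehicle; IC50 and X[50] from curve fits. OD600 tracked growth effects.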

[2] = read-out: CsgA ThT Assay (10 μM CsgA) % Control AUC at 1005 minutes, 25 μM (activity range), CsgA 10 μM, black plates, class symbol
[3] = read-out: CsgA ThT Assay (10 μM CsgA) % Control AUC at 1005 minutes, 25 μM, mean AUC as % of DMSO control, CsgA 10 μM, black plates
[4] = read-out: CsgA ThT Assay (10 μM CsgA) % Control AUC at 1005 minutes, 100 μM (activity range), CsgA 10 μM, black plates, class symbol
[5] = read-out: CsgA ThT Assay (10 μM CsgA) % Control AUC at 1005 minutes, 100 μM, mean AUC as % of DMSO control, CsgA 10 μM, black plates
[6] = read-out: Reporter Assay Abs IC50 (activity range), median Abs IC50 in the CsgA reporter assay, class symbol
[7] = read-out: Reporter Assay Abs IC50 (μM), median Abs IC50 in the CsgA reporter assay, N/A = maximum expression reduction is <50% of control

T1 sequence (P28307 23-151): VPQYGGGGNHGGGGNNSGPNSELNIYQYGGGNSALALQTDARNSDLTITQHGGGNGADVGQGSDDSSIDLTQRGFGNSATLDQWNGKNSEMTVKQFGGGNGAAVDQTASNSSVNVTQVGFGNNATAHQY

Structure (SMILES)	remaining activity at 25 µM (E. coli CsgA; [2]) [%]	remaining activity at 25 µM (E. coli CsgA; [3]) [%]	remaining activity at 100 µM (E. coli CsgA; [4]) [%]	remaining activity at 100 µM (E. coli CsgA; [5]) [%]	IC50 [1, 6] [µM]	IC50 [1, 7] [µM]
C=Cc1c(Cc2cccc3ccccc23)c(-c2cccc(C(F)(F)F)c2)c2n(c1=O)C(C(=O)O)CN(C)S2(=O)=O (stereo not drawn) [Compound 078, 2-methyl-8-(naphthalen-1-ylmethyl)-6-oxo-9-(3-(trifluoromethyl)phenyl)-7-vinyl-3,4-dihydro-2H,6H-pyrido[1,2-e][1,2,5]thiadiazine-4-carboxylic acid 1,1-dioxide]	11 to 31	19	11 to 31	12	4.6 to 10	5.1
CN1CC(C(=O)O)n2c(c(-c3cccc(C(F)(F)F)c3)c(Cc3cccc4ccccc34)c(N3CCOCC3)c2=O)S1(=O)=O (stereo not drawn) [Compound 079, 2-methyl-7-morpholino-8-(naphthalen-1-ylmethyl)-6-oxo-9-(3-(trifluoromethyl)phenyl)-3,4-dihydro-2H,6H-pyrido[1,2-e][1,2,5]thiadiazine-4-carboxylic acid 1,1-dioxide]	31 to 60	40	11 to 31	14	> 10	10.7
O=C(O)C1CNc2c(-c3cccc(C(F)(F)F)c3)c(Cc3cccc4ccccc34)cc(=O)n21 (stereo not drawn) [Compound 080, 7-(naphthalen-1-ylmethyl)-5-oxo-8-(3-(trifluoromethyl)phenyl)-1,2,3,5-tetrahydroimidazo[1,2-a]pyridine-3-carboxylic acid]	> 60	80	> 60	72	> 10	26.3
O=C(O)C1CS(=O)(=O)c2c(-c3cccc(C(F)(F)F)c3)c(C(F)(F)c3cccc4ccccc34)cc(=O)n21 (stereo not drawn) [Compound 081, 7-(difluoro(naphthalen-1-yl)methyl)-5-oxo-8-(3-(trifluoromethyl)phenyl)-2,3-dihydro-5H-thiazolo[3,2-a]pyridine-3-carboxylic acid 1,1-dioxide]	11 to 31	25	11 to 31	24	> 10	16.5
Nc1c(Cc2cccc3ccccc23)c(-c2cccc(C(F)(F)F)c2)c2n(c1=O)C(C(=O)O)CNS2(=O)=O (stereo not drawn) [Compound 082, 7-amino-8-(naphthalen-1-ylmethyl)-6-oxo-9-(3-(trifluoromethyl)phenyl)-3,4-dihydro-2H,6H-pyrido[1,2-e][1,2,5]thiadiazine-4-carboxylic acid 1,1-dioxide]	31 to 60	51	11 to 31	12	> 10	17.5
CN(C)Cc1c(Cc2cccc3ccccc23)c(-c2cccc(C(F)(F)F)c2)c2n(c1=O)C(C(=O)O)CS2(=O)=O (stereo not drawn) [Compound 083, 6-((dimethylamino)methyl)-7-(naphthalen-1-ylmethyl)-5-oxo-8-(3-(trifluoromethyl)phenyl)-2,3-dihydro-5H-thiazolo[3,2-a]pyridine-3-carboxylic acid 1,1-dioxide]	> 60	102	> 60	80	> 10	14.6
O=C(O)C1CN(CCO)S(=O)(=O)c2c(-c3cccc(C(F)(F)F)c3)c(Cc3cccc4ccccc34)cc(=O)n21 (stereo not drawn) [Compound 084, 2-(2-hydroxyethyl)-8-(naphthalen-1-ylmethyl)-6-oxo-9-(3-(trifluoromethyl)phenyl)-3,4-dihydro-2H,6H-pyrido[1,2-e][1,2,5]thiadiazine-4-carboxylic acid 1,1-dioxide]	31 to 60	57	11 to 31	19	> 10	27
O=C(O)C1CN(CCCCO)S(=O)(=O)c2c(-c3cccc(C(F)(F)F)c3)c(Cc3cccc4ccccc34)cc(=O)n21 (stereo not drawn) [Compound 085, 2-(4-hydroxybutyl)-8-(naphthalen-1-ylmethyl)-6-oxo-9-(3-(trifluoromethyl)phenyl)-3,4-dihydro-2H,6H-pyrido[1,2-e][1,2,5]thiadiazine-4-carboxylic acid 1,1-dioxide]	31 to 60	52	11 to 31	18	> 10	15.3
O=C(O)C1CN(CCCCCO)S(=O)(=O)c2c(-c3cccc(C(F)(F)F)c3)c(Cc3cccc4ccccc34)cc(=O)n21 (stereo not drawn) [Compound 086, 2-(5-hydroxypentyl)-8-(naphthalen-1-ylmethyl)-6-oxo-9-(3-(trifluoromethyl)phenyl)-3,4-dihydro-2H,6H-pyrido[1,2-e][1,2,5]thiadiazine-4-carboxylic acid 1,1-dioxide]	31 to 60	33	11 to 31	20	4.6 to 10	9.6
C/C=C\c1c(Cc2cccc3ccccc23)c(-c2cccc(C(F)(F)F)c2)c2n(c1=O)C(C(=O)O)CN(C)S2(=O)=O (stereo not drawn) [Compound 087, (Z)-2-methyl-8-(naphthalen-1-ylmethyl)-6-oxo-7-(prop-1-en-1-yl)-9-(3-(trifluoromethyl)phenyl)-3,4-dihydro-2H,6H-pyrido[1,2-e][1,2,5]thiadiazine-4-carboxylic acid 1,1-dioxide]	11 to 31	30	11 to 31	15	4.6 to 10	6
C/C=C/c1c(Cc2cccc3ccccc23)c(-c2cccc(C(F)(F)F)c2)c2n(c1=O)C(C(=O)O)CN(C)S2(=O)=O (stereo not drawn) [Compound 088, (E)-2-methyl-8-(naphthalen-1-ylmethyl)-6-oxo-7-(prop-1-en-1-yl)-9-(3-(trifluoromethyl)phenyl)-3,4-dihydro-2H,6H-pyrido[1,2-e][1,2,5]thiadiazine-4-carboxylic acid 1,1-dioxide]	31 to 60	36	11 to 31	26	4.6 to 10	5.2
CCCN1CC(C(=O)O)n2c(c(-c3cccc(C(F)(F)F)c3)c(Cc3cccc4ccccc34)c(N)c2=O)S1(=O)=O (stereo not drawn) [Compound 089, 7-amino-8-(naphthalen-1-ylmethyl)-6-oxo-2-propyl-9-(3-(trifluoromethyl)phenyl)-3,4-dihydro-2H,6H-pyrido[1,2-e][1,2,5]thiadiazine-4-carboxylic acid 1,1-dioxide]	31 to 60	31	11 to 31	23	4.6 to 10	8
CCCc1c(Cc2cccc3ccccc23)c(-c2cccc(C(F)(F)F)c2)c2n(c1=O)C(C(=O)O)CN(C)S2(=O)=O (stereo not drawn) [Compound 090, 2-methyl-8-(naphthalen-1-ylmethyl)-6-oxo-7-propyl-9-(3-(trifluoromethyl)phenyl)-3,4-dihydro-2H,6H-pyrido[1,2-e][1,2,5]thiadiazine-4-carboxylic acid 1,1-dioxide]	31 to 60	54	11 to 31	30	4.6 to 10	5.9
CN1CC(C(=O)O)n2c(c(-c3cccc(C(F)(F)F)c3)c(Cc3cccc4ccccc34)c(NC3CCNCC3)c2=O)S1(=O)=O (stereo not drawn) [Compound 091, 2-methyl-8-(naphthalen-1-ylmethyl)-6-oxo-7-(piperidin-4-ylamino)-9-(3-(trifluoromethyl)phenyl)-3,4-dihydro-2H,6H-pyrido[1,2-e][1,2,5]thiadiazine-4-carboxylic acid 1,1-dioxide]	> 60	90	> 60	65	4.6 to 10	5.6
CCN1CC(C(=O)O)n2c(c(-c3cccc(C(F)(F)F)c3)c(Cc3cccc4ccccc34)c(N)c2=O)S1(=O)=O (stereo not drawn) [Compound 092, 7-amino-2-ethyl-8-(naphthalen-1-ylmethyl)-6-oxo-9-(3-(trifluoromethyl)phenyl)-3,4-dihydro-2H,6H-pyrido[1,2-e][1,2,5]thiadiazine-4-carboxylic acid 1,1-dioxide]	> 60	64	31 to 60	52	> 10	18.8
